Assay results published in patent US10246453B2, “Benzenesulfonamide compounds and their use as therapeutic agents” (Xenon Pharmaceuticals Inc., priority 2016, dated 2019).
Counter-ions that a name gives are not always drawn.

Columns and labels:
NaV1.1 = NaV1.1 (Homo sapiens (Human), UniProt P35498); experiment: Sodium Influx Assay (Flux), NaV1.1; type: cell-based; conditions: Trex HEK293 cells, ANG2 dye; arithmetic mean
NaV1.5 = NaV1.5 (Homo sapiens (Human), UniProt Q14524); experiment: Sodium Influx Assay (Flux), NaV1.5; conditions: read-out: Flux NaV1.5 IC50; Trex HEK293 cells, ANG2 dye; arithmetic mean
NaV1.5, sequence (Q14524 other isoform, or with tags, fused parts or gaps): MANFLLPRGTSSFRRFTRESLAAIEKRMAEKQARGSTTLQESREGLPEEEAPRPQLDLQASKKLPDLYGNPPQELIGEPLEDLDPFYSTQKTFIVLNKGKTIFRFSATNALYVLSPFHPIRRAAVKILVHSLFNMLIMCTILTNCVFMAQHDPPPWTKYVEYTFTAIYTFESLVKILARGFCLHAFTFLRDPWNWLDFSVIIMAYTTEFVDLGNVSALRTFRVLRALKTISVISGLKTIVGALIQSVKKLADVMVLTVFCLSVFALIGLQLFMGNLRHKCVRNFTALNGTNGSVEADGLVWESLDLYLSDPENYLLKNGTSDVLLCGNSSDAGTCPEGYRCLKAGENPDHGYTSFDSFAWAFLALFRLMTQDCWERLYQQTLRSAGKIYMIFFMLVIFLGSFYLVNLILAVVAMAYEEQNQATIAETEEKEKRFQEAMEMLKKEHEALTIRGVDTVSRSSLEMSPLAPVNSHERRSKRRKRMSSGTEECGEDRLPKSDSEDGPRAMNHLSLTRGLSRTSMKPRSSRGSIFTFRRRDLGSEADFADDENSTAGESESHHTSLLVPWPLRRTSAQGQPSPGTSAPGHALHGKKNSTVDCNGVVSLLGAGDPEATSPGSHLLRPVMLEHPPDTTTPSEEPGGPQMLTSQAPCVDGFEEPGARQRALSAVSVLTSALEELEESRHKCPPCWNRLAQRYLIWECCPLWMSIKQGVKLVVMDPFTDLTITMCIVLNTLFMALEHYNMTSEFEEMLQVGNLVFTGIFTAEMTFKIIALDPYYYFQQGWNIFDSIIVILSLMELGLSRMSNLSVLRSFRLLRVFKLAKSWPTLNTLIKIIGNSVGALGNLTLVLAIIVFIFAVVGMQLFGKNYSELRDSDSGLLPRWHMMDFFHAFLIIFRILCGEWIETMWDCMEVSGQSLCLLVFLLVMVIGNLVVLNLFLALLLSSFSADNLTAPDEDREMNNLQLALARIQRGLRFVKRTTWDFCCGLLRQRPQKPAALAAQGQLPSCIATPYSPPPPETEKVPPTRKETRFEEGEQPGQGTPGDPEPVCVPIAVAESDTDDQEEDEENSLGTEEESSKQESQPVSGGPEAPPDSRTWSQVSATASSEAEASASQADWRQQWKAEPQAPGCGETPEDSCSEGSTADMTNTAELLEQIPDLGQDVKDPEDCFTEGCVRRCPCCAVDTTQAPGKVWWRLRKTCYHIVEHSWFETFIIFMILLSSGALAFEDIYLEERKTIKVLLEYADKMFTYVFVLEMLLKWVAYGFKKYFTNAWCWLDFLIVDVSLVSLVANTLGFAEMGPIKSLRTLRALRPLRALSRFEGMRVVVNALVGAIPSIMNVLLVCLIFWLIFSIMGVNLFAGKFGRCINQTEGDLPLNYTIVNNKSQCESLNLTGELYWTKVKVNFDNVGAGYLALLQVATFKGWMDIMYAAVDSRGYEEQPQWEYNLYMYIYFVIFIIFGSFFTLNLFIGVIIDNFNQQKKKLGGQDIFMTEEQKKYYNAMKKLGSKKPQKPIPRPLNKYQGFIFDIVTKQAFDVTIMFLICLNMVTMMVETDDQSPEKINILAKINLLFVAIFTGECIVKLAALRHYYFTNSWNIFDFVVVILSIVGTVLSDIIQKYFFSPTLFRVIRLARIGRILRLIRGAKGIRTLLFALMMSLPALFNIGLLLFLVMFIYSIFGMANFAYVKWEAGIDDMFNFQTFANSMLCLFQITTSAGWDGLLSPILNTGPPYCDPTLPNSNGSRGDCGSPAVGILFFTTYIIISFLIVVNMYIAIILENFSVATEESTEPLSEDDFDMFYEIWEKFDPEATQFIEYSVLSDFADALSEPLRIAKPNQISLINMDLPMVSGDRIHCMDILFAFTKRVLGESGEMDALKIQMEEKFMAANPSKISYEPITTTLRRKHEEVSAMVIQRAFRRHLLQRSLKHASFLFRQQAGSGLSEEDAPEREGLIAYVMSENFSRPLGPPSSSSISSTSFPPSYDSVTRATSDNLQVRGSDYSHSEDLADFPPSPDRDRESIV

NaV1.6 = NaV1.6 (Homo sapiens (Human), UniProt Q9UQD0); experiment: Sodium Influx Assay (Flux), NaV1.6; conditions: read-out: Flux NaV1.6 IC50; Trex HEK293 cells, ANG2 dye; arithmetic mean

| Structure (SMILES) | IC50 (NaV1.1) [µM] | IC50 (NaV1.5) [µM] | IC50 (NaV1.6) [µM] |
| --- | --- | --- | --- |
| C[C@H]1C[C@H](N(C)c2cc(F)c(S(=O)(=O)Nc3cscn3)cc2Cl)CN1Cc1ccccc1 [Example 231, 4-(((3S,5S)-1-benzyl-5-methylpyrrolidin-3-yl)(methyl)amino)-5-chloro-2-fluoro-N-(thiazol-4-yl)benzenesulfonamide formate] | 25.5 | 15.1 | 5.51 |
| O=S(=O)(Nc1cscn1)c1ccc(OC2CCN(Cc3cccc(C(F)F)c3)CC2)c(Cl)c1 [Example 232, 3-chloro-4-((1-(3-(difluoromethyl)benzyl)piperidin-4-yl)oxy)-N-(thiazol-4-yl)benzenesulfonamide formate] | 4.6 | 3.76 | 0.858 |
| Cc1c(NC2(C)CN(Cc3ccccc3)C2)cc(F)c(S(=O)(=O)Nc2cscn2)c1F [Example 233, 4-((1-benzyl-3-methylazetidin-3-yl)amino)-2,6-difluoro-3-methyl-N-(thiazol-4-yl)benzenesulfonamide 2,2,2-trifluoroacetate] | 6.02 | 27.3 | 0.375 |
| O=S(=O)(Nc1nccs1)c1ccc(OC2CCN(CCc3ccccc3)CC2)c(Cl)c1 [Example 234, 3-chloro-4-((1-phenethylpiperidin-4-yl)oxy)-N-(thiazol-2-yl)benzenesulfonamide] | 6.87 | 20.7 | 1.42 |
| Cc1c(N(C)[C@H]2CCN(Cc3cccc(F)c3)C2)cc(F)c(S(=O)(=O)Nc2cscn2)c1F [Example 235, (S)-2,6-difluoro-4-((1-(3-fluorobenzyl)pyrrolidin-3-yl)(methyl)amino)-3-methyl-N-(thiazol-4-yl)benzenesulfonamide formate] | 10.2 | 15.4 | 0.047 |
| Cc1c(N(C)[C@H]2CCN(Cc3ccccc3F)C2)cc(F)c(S(=O)(=O)Nc2cscn2)c1F [Example 236, (S)-2,6-difluoro-4-((1-(2-fluorobenzyl)pyrrolidin-3-yl)(methyl)amino)-3-methyl-N-(thiazol-4-yl)benzenesulfonamide formate] | 24.3 | > 30 | 0.067 |
| Cc1c(N(C)[C@H]2CCN(Cc3cccc(F)c3F)C2)cc(F)c(S(=O)(=O)Nc2cscn2)c1F [Example 237, (S)-4-((1-(2,3-difluorobenzyl)pyrrolidin-3-yl)(methyl)amino)-2,6-difluoro-3-methyl-N-(thiazol-4-yl)benzenesulfonamide formate] | 8.52 | 14.7 | 0.064 |
| Cc1cc(S(=O)(=O)Nc2cscn2)c(F)cc1OC1CCN(Cc2ccccc2)CC1 [Example 239, 4-((1-benzylpiperidin-4-yl)oxy)-2-fluoro-5-methyl-N-(thiazol-4-yl)benzenesulfonamide] | 27 | 16.5 | 0.708 |
| Cc1c(N(C)[C@H]2CCN(Cc3cc(F)ccc3F)C2)cc(F)c(S(=O)(=O)Nc2cscn2)c1F [Example 240, (S)-4-((1-(2,5-difluorobenzyl)pyrrolidin-3-yl)(methyl)amino)-2,6-difluoro-3-methyl-N-(thiazol-4-yl)benzenesulfonamide 2,2,2-trifluoroacetate] | 8.06 | 7.46 | 0.093 |
| CN(c1ccc(S(=O)(=O)Nc2nccs2)cc1Cl)C1(C)CCN(Cc2ccccc2)C1 (stereo not drawn) [Example 241, 4-((1-benzyl-3-methylpyrrolidin-3-yl)(methyl)amino)-3-chloro-N-(thiazol-2-yl)benzenesulfonamide] | 9.93 | 15.1 | 0.274 |
| CC[C@H](c1ccccc1)N1CC[C@H](N(C)c2cc(F)c(S(=O)(=O)Nc3cscn3)cc2Cl)C1 [Example 243, 5-chloro-2-fluoro-4-(methyl((S)-1-((R)-1-phenylpropyl)pyrrolidin-3-yl)amino)-N-(thiazol-4-yl)benzenesulfonamide] | 13.1 | 25.7 | 1.06 |
| CN(c1cc(F)c(S(=O)(=O)Nc2cscn2)cc1Cl)[C@H]1CCN(C2(c3ccccc3F)CCC2)C1 [Example 244, (S)-5-chloro-2-fluoro-4-((1-(1-(2-fluorophenyl)cyclobutyl)pyrrolidin-3-yl)(methyl)amino)-N-(thiazol-4-yl)benzenesulfonamide formate] | 6.94 | 5.08 | 1.23 |
| Cc1nc(CN2CC[C@H](N(C)c3cc(F)c(S(=O)(=O)Nc4cscn4)cc3C)C2)c(C)o1 [Example 245, (S)-4-((1-((2,5-dimethyloxazol-4-yl)methyl)pyrrolidin-3-yl)(methyl)amino)-2-fluoro-5-methyl-N-(thiazol-4-yl)benzenesulfonamide 2,2,2-trifluoroacetate] | > 30 | > 30 | 2.12 |
| CN(c1ccc(S(=O)(=O)Nc2cscn2)c(F)c1Cl)[C@H]1CCN([C@H]2CCc3ccccc32)C1 [Example 247, 3-chloro-4-(((S)-1-((S)-2,3-dihydro-1H-inden-1-yl)pyrrolidin-3-yl)(methyl)amino)-2-fluoro-N-(thiazol-4-yl)benzenesulfonamide 2,2,2-trifluoroacetate] | 6.87 | 14 | 0.469 |
| CC[C@@H](c1ccccc1Cl)N1CC[C@H](N(C)c2cc(F)c(S(=O)(=O)Nc3cscn3)cc2Cl)C1 [Example 248, 5-chloro-4-(((S)-1-((S)-1-(2-chlorophenyl)propyl)pyrrolidin-3-yl)(methyl)amino)-2-fluoro-N-(thiazol-4-yl)benzenesulfonamide 2,2,2-trifluoroacetate] | 5.53 | 7.06 | 3.31 |
| C[C@@H](c1ccccc1)N1CC[C@H](N(C)c2ccc(S(=O)(=O)Nc3cscn3)cc2Cl)C1 [Example 250, 3-chloro-4-(methyl((S)-1-((S)-1-phenylethyl)pyrrolidin-3-yl)amino)-N-(thiazol-4-yl)benzenesulfonamide 2,2,2-trifluoroacetate] | 5.5 | 6.48 | 1.42 |
| CN(c1ccc(S(=O)(=O)Nc2ncns2)cc1Cl)[C@H]1CCN(Cc2ccccc2Cl)C1 [Example 252, (S)-3-chloro-4-((1-(2-chlorobenzyl)pyrrolidin-3-yl)(methyl)amino)-N-(1,2,4-thiadiazol-5-yl)benzenesulfonamide 2,2,2-trifluoroacetate] | 17.1 | 8.08 | 0.304 |
| CC1(Nc2ccc(S(=O)(=O)Nc3cscn3)cc2Cl)CN(Cc2ccccc2)C1 [Example 255, 4-((1-benzyl-3-methylazetidin-3-yl)amino)-3-chloro-N-(thiazol-4-yl)benzenesulfonamide 2,2,2-trifluoroacetate] | 9.14 | 12.7 | 3.7 |
| O=S(=O)(Nc1cscn1)c1cc(Cl)c(N[C@H]2CCN(Cc3ccccc3)C2)cc1F [Example 258, (S)-4-((1-benzylpyrrolidin-3-yl)amino)-5-chloro-2-fluoro-N-(thiazol-4-yl)benzenesulfonamide formate] | 12.9 | 15.4 | 7.98 |
| O=S(=O)(Nc1cscn1)c1cc(Cl)c(N[C@@H]2CCN(Cc3ccccc3)C2)cc1F [Example 261, (R)-4-((1-benzylpyrrolidin-3-yl)amino)-5-chloro-2-fluoro-N-(thiazol-4-yl)benzenesulfonamide] | 8.29 | 24.6 | 6.04 |
| CN(c1cc(F)c(S(=O)(=O)Nc2cscn2)cc1Cl)[C@@H]1CCN(Cc2ccccc2)C1 [Example 262, (R)-4-((1-benzylpyrrolidin-3-yl)(methyl)amino)-5-chloro-2-fluoro-N-(thiazol-4-yl)benzenesulfonamide] | 25.2 | 28.8 | 13.3 |
| O=S(=O)(Nc1cscn1)c1cc(Cl)c(N[C@@H]2CN(Cc3ccccc3)CC23CC3)cc1F [Example 264, (S)-4-((5-benzyl-5-azaspiro[2.4]heptan-7-yl)amino)-5-chloro-2-fluoro-N-(thiazol-4-yl)benzenesulfonamide 2,2,2-trifluoroacetate] | 6.01 | 13.1 | 4.79 |
| CN(c1cc(F)c(S(=O)(=O)Nc2cscn2)cc1Cl)[C@@H]1CN(Cc2ccccc2)CC12CC2 [Example 265, (S)-4-((5-benzyl-5-azaspiro[2.4]heptan-7-yl)(methyl)amino)-5-chloro-2-fluoro-N-(thiazol-4-yl)benzenesulfonamide 2,2,2-trifluoroacetate] | 6.35 | 6.8 | 4.79 |
| Cc1ccc(F)c(CN2CC[C@](C)(Nc3ccc(S(=O)(=O)Nc4cscn4)cc3Cl)C2)c1 [Example 266, (S)-3-chloro-4-((1-(2-fluoro-5-methylbenzyl)-3-methylpyrrolidin-3-yl)amino)-N-(thiazol-4-yl)benzenesulfonamide formate] | 2.67 | 2.06 | 1.77 |
| O=S(=O)(Nc1cscn1)c1c(F)cc(O[C@H]2CCN(Cc3ccccc3)C2)c(Cl)c1F [Example 268, (S)-4-((1-benzylpyrrolidin-3-yl)oxy)-3-chloro-2,6-difluoro-N-(thiazol-4-yl)benzenesulfonamide hydrochloride] | > 30 | 28.2 | 4.92 |
| CN(c1cc(F)c(S(=O)(=O)Nc2cscn2)cc1C(F)F)[C@H]1CCN(Cc2ccccc2)C1 [Example 270, (S)-4-((1-benzylpyrrolidin-3-yl)(methyl)amino)-5-(difluoromethyl)-2-fluoro-N-(thiazol-4-yl)benzenesulfonamide formate] | 21.9 | 28.7 | 4.74 |
| Cc1cc(S(=O)(=O)Nc2cscn2)c(F)cc1N[C@@H]1CCN(Cc2ccccc2)C1 [Example 271, (R)-4-((1-benzylpyrrolidin-3-yl)amino)-2-fluoro-5-methyl-N-(thiazol-4-yl)benzenesulfonamide formate] | 8.7 | 8.18 | 4.09 |
